Here are results for three compounds from patent US9539233B2, “Gallium formulation for the treatment and prevention of infectious diseases” (Aridis Pharmaceuticals Inc., priority 2009, dated 2017).

One assay has as its system B. anthracis 7702 cells. In kind it is cell-based. As to conditions: 1:1 gallium-to-citrate molar ratio, approximately 20 hours of growth.
For a further assay, the system named is P. aeruginosa. Particulars: for MIC: iron-starved BM-2 broth.
Assay [1] concerns Pa. Particulars: against Pa; cited from earlier work.
Assay [2] deals with Pa. Particulars: i.t. inoculation of a lethal dose of Pa followed by nasal instillation of a bolus of liquid; mouse; cited from earlier work.

≈ marks a conversion by molar mass, not a printed value. Where two headings read alike, the source gives them in different places. Bounds are passed on as bounds.

The MIC is the lowest concentration that inhibits growth of the organism. A lower MIC goes with inhibition by little substance. For the compound `O=[N+]([O-])[O-].O=[N+]([O-])[O-].O=[N+]([O-])[O-].[Ga+3]` [Gallium, gallium nitrate], the OD600 nm with B. anthracis 7702 cells (Gallium concentration 6.8 μM, TSB, 37° C.) was 0.000; in the assay on B. anthracis 7702 cells (Gallium concentration 23.3 μM), 0.000; in the assay with B. anthracis 7702 cells (Gallium concentration 27.1 μM) it was 0.001; in the assay on B. anthracis 7702 cells (Gallium concentration 88.9 μM) it was 0.003; with B. anthracis 7702 cells (Gallium concentration 614.8 μM) it was 0.000; in the assay with B. anthracis 7702 cells (Gallium concentration 1709.9 μM), 0.000. For the same compound, the MIC in the assay on P. aeruginosa (Mucoid Strain 20JR, 24 hours) was below 1 µg/mL; in the assay on P. aeruginosa (Mucoid Strain 35LK, 24 hours) it was below 1 µg/mL; with P. aeruginosa (Mucoid Strain 41JQ, 24 hours), below 32 µg/mL; in the assay on P. aeruginosa (Mucoid Strain 47JS, 24 hours), below 1 µg/mL; against P. aeruginosa (Mucoid Strain 62LL, 24 hours), below 1 µg/mL; with P. aeruginosa (Mucoid Strain 96JC, 24 hours), below 1 µg/mL. For the same compound, the MIC in the assay with P. aeruginosa (Mucoid Strain 97JE, 24 hours) was below 1 µg/mL; in the assay on P. aeruginosa (Non-mucoid Strain 9HN, 24 hours), below 2 µg/mL; against P. aeruginosa (Non-mucoid Strain 30IX, 24 hours), below 1 µg/mL; with P. aeruginosa (Non-mucoid Strain 30JS, 24 hours) it was below 1 µg/mL; with P. aeruginosa (Non-mucoid Strain 38LL, 24 hours), below 1 µg/mL; against P. aeruginosa (Non-mucoid Strain 39IV, 24 hours), below 1 µg/mL. Further, the MIC in the assay on P. aeruginosa (Non-mucoid Strain 46IV, 24 hours) was below 1 µg/mL; against P. aeruginosa (Non-mucoid Strain 55HY, 24 hours), below 1 µg/mL. Further, in the assay on Pa [1], the “bactericidal concentration (MBC)” value is listed as “approximately 0.7 μg/mL”. The “minimum inhibitory concentration (MIC90)” value with Pa [1] is recorded as “approximately 0.7 μg/mL”. The protection result in the assay on Pa [2] is “good protection”.

Turning to `NC[C@H]1O[C@H](O[C@H]2[C@H](O)[C@@H](O[C@H]3O[C@H](CO)[C@@H](O)[C@H](N)[C@H]3O)[C@H](N)C[C@@H]2N)[C@H](N)C[C@@H]1O` [Tobramycin], the “susceptibility category (R/S/I)” value in the assay on P. aeruginosa (Mucoid Strain 20JR) is recorded as “S”; with P. aeruginosa (Mucoid Strain 35LK), “I”; in the assay on P. aeruginosa (Mucoid Strain 41JQ) it was “R”; in the assay on P. aeruginosa (Mucoid Strain 47JS), “R”; in the assay with P. aeruginosa (Mucoid Strain 62LL), “S”; in the assay with P. aeruginosa (Mucoid Strain 96JC), “R”. Also, the “susceptibility category (R/S/I)” value is recorded as “R” in the assay on P. aeruginosa (Mucoid Strain 97JE); “R” in the assay with P. aeruginosa (Non-mucoid Strain 9HN); “R” with P. aeruginosa (Non-mucoid Strain 30IX); “S” in the assay on P. aeruginosa (Non-mucoid Strain 30JS); “I” with P. aeruginosa (Non-mucoid Strain 38LL); “S” with P. aeruginosa (Non-mucoid Strain 39IV). The “susceptibility category (R/S/I)” value in the assay on P. aeruginosa (Non-mucoid Strain 46IV) and in the assay with P. aeruginosa (Non-mucoid Strain 55HY) was “R” in each case. The MIC amounted to 128 µg/mL (≈ 274 µM) with P. aeruginosa (Pseudomonas aeruginosa, 24 h, Non-mucoid Strain 9HN) and 128 µg/mL (≈ 274 µM) with P. aeruginosa (Pseudomonas aeruginosa, 24 h, Non-mucoid Strain 55HY).

On to `C[C@H]1[C@H](NC(=O)/C(=N\OC(C)(C)C(=O)O)c2csc(N)n2)C(=O)N1S(=O)(=O)O` [Aztreonam], for which the “susceptibility category (R/S/I)” value with P. aeruginosa (Mucoid Strain 20JR) was “S”; with P. aeruginosa (Mucoid Strain 35LK) it was “S”; in the assay with P. aeruginosa (Mucoid Strain 41JQ), “R”; in the assay with P. aeruginosa (Mucoid Strain 47JS), “I”; with P. aeruginosa (Mucoid Strain 62LL), “R”; in the assay with P. aeruginosa (Mucoid Strain 96JC), “R”. Moreover, the “susceptibility category (R/S/I)” value is given as “R” in the assay on P. aeruginosa (Mucoid Strain 97JE); “R” with P. aeruginosa (Non-mucoid Strain 9HN); “S” in the assay with P. aeruginosa (Non-mucoid Strain 30IX); “S” with P. aeruginosa (Non-mucoid Strain 30JS); “R” in the assay with P. aeruginosa (Non-mucoid Strain 38LL); “R” with P. aeruginosa (Non-mucoid Strain 39IV). For the same compound, the entries for the “susceptibility category (R/S/I)” value with P. aeruginosa (Non-mucoid Strain 46IV) and in the assay on P. aeruginosa (Non-mucoid Strain 55HY) were “R” and “I”, respectively.
